# Read-outs that look alike come from different tables or passages of the source.
# How the values were obtained:
# C. trachomatis serovar D = C. trachomatis serovar D in cell culture; cited from earlier work
# Procedure: The tested compounds were applied to C. trachomatis-infected cells at an early stage of the chlamydial developmental cycle (Figure 1a), before the bacteria started replicating. During the early treatment with MRY D2, the majority of muraymycin derivatives and cCPZ had MICs between 16 µg/mL for cCPZ and 128 µg/mL for MRY D2 (Figure 1d). These MICs were relatively high compared with the MICs of the first-choice antibiotics against uncomplicated chlamydial genital infections, DOX and AZI, which have MICs of <1 µg/mL against C. trachomatis serovar D in cell culture. All der ...
# C. trachomatis D/UW-3/CX [1] = test: Anti-chlamydial activity (MIC) in C. trachomatis-infected HEp-2 cells, fluorescence microscopy; assay type: cell-based; settings: for Effect on C. trachomatis infection (phenotype): added at 2 hpi, read at 30 hpi, HEp-2 cells; for MIC: C. trachomatis D/UW-3/CX-infected HEp-2 cells, compound added at 2 hpi, fluorescence microscopy at 30 hpi, MIC = lowest concentration with >90% reduction in inclusions or inducing enlarged aberrant cells, three experiments
# Procedure: First, we tested the lead compound MRY D2 (Figure 1a) and seven muraymycin derivatives (MRH; described in [47, 48]) on C. trachomatis in cell culture experiments. To this end, C. trachomatis D/UW-3/CX-infected HEp-2 cells were treated with the compounds at 2 h post infection (hpi; Figure 1b), which represents an early stage of the chlamydial developmental cycle before bacterial replication. Inhibitors were applied over a range of concentrations that were not detrimental to HEp-2 host cells in resazurin-based viability assays (Table S1), and the effects were visualized by fluorescence microscopy (Figure 1c and Figure S2) at 30 hpi. The minimal inhibitory concentration (MIC) for Chlamydia was defined as either the lowest concentration leading to a >90% reduction in inclusions or, for aberrance-inducing compounds, the concentration leading to abnormal chlamydial cell phenotypes, i.e., enlarged cells after treatment with PEN G [39].
# (§1) The effect of the compounds on active C. trachomatis infections was analyzed by fluorescence microscopy. […] The cells were washed once with medium and infected with freshly prepared C. trachomatis D/UW-3/CX EB-containing suspension. After 2 h incubation, the EB suspension was aspirated, and the cells were washed twice with medium. The effect of compounds on an infection was determined by application of the compound at 2 hpi or 12 hpi in a serial dilution from 1 µg/mL to 64 µg/mL (MRH-25, -76, -92, cCPZ) or from 1 µg/mL to 128 µg/mL (MRY D2, MRH-22, -23, -38, and -82). Negative controls were conducted with DMSO as a vehicle control. For Chlamydia, the MIC is defined as a >90% reduction in inclusions. The MIC of compounds inducing the formation of enlarged, aberrant bodies is the lowest concentration that induces the abnormal inclusion morphology.
# (§2) Infected HEp-2 cells were fixed and permeabilized with 100% (v/v) ice-cold methanol at 30 hpi and washed once with 1 × phosphate-buffered saline (PBS, 4 mM KH2PO4 pH 7.4, 16 mM Na2HPO4, 115 mM NaCl). The Pathfinder Chlamydia Culture Confirmation System (Bio-Rad Laboratories, Hercules, CA) was used to stain the C. trachomatis lipopolysaccharide and host cell cytoplasm by incubation for 30 min at 37 °C. Genomic DNA was stained with 10 µg/mL DAPI (Thermo Fisher Scientific) for 1 min and then washed twice with PBS for 10 min at 4 °C. Fluorescence microscopy was performed with an Axio observer Z.1 using the Zen2 software (Carl Zeiss, Oberkochen, Germany).
# [2] = test system: Wolbachia strain B of A. albopictus; test: Quantification (depletion) of Wolbachia by qPCR, 16S rDNA/actin B ratio; assay type: cell-based, Wolbachia strain B of Aedes albopictus; settings: 4 µg/mL, 9 days, C6/36 cells, positive control
# Procedure: (a) A. albopictus C6/36 cells infected with Wolbachia strain B of A. albopictus were cultured for 9 days with or without the compounds at varying concentrations. […] (c) The depletion of Wolbachia from infected and treated C6/36 cells was measured after 9 days by extracting genomic DNA and measuring the ratio of Wolbachia 16S rDNA and A. albopictus actin B by qPCR; the median ± interquartile range from three experiments is shown.
# Susceptibility of Wolbachia toward different compounds was tested as described [32, 53]. In short, 1 × 10^4 cells/well of A. albopictus C6/36 infected with Wolbachia were cultured in supplemented medium in 96-well plates with or without compound at 26 °C for 9 days. The medium, with and without compound, was exchanged every third day, and the cells were harvested on day 9 for the extraction of genomic DNA using the QIAamp Kit (Qiagen, Hilden, Germany) according to the manufacturer’s protocol. Wolbachia were quantified by qPCR of the 16S rDNA gene of Wolbachia (GenBank accession No. X61767) and the actin B gene of A. albopictus (GenBank accession no. DQ657949) as described [32, 91]. A plasmid containing the appropriate insert was used to generate a standard curve to determine the copy number of the genes. The abundance of Wolbachia was normalized by calculating the ratio of 16S rDNA copies/µL to actin B copies/µL.
# HEp-2 cells [3] = test: Cytotoxicity toward HEp-2 cells, resazurin-based alamarBlue viability assay; settings: 28 h incubation, normalized to DMSO, non-linear regression from mean of two independent experiments, highest concentration tested 128 µg/mL
# Procedure: (§3) Cytotoxicity of the compounds toward HEp-2 cells was assessed using the resazurin-based alamarBlue cell viability reagent (Thermo Fisher Scientific, Waltham, MA, USA). 5 × 10^4 HEp-2 cells/mL were seeded into flat base TC-96-well plates (Sarstedt, Nümbrecht, Germany) and incubated at 37 °C and 5% (v/v) CO2. After 48 h, the cells were washed with medium, followed by the addition of compounds in a serial dilution ranging from 128 µg/mL to 1 µg/mL for another 28 h. Next, the cells were washed twice with Hank’s balanced salt solution (HBSS) and incubated with the alamarBlue cell viability reagent diluted 1:10 in HBSS for 1 h. The conversion of resazurin into resorufin by viable cells was determined by transferring the supernatant into black 96-well plates (Greiner Bio-One, Frickenhausen, Germany) and measuring the fluorescence at 550 nm excitation and 595 nm emission wavelengths using a Tecan infinite M200 plate reader and Tecan SparkControl software v3.2 (Tecan Group, Männedorf, Switzerland). HEp-2 cell viability was normalized to the vehicle control, and the cytotoxic concentration 50% (CC50) was calculated by non-linear regression using GraphPad Prism v10.1.2 (GraphPad Software, San Diego, CA, USA).
# C. pneumoniae MraY = test: Inhibition of C. pneumoniae MraY in vitro (lipid I formation, TLC); assay type: biochemical; settings: 0.5 µM compound (range tested 0.05-0.5 µM), 2 µg MraYCpn, C55-P, UDP-MurNAc-pentapeptide, 90 min, duplicate
# Description: (a) C. pneumoniae and Wolbachia spp. MraY use the precursor molecules undecaprenyl-phosphate (C55-P) and uridine diphosphate (UDP)-N-acetylmuramoyl(MurNAc)-pentapeptide to form lipid I, which is glycosylated with N-acetylglucosamine (GlcNAc) by MurG, yielding lipid II. IM: inner membrane; UMP: uridine monophosphate; mDAP: meso-diaminopimelic acid; C55-P: undecaprenyl-phosphate. […] Reaction products were extracted, separated via thin-layer chromatography, and stained. Formation of lipid I by MraYCpn was inhibited by both tested inhibitors.
# C. pneumoniae MraY was heterologously overexpressed in E. coli, purified via His-tag affinity chromatography, and inhibition of the enzymatic activity was analyzed by visualizing the reaction products via thin-layer chromatography.
# Inhibition assays with MraYCpn and the compounds were performed based on the activity assays for MraYCpn as previously described, with minor modifications, in a final volume of 50 µL. First, 2.5 nmol C55-P (Larodan, Solna, Sweden) was dissolved in 0.43% (v/v) Triton X-100 by vortexing for 1 min. Then, 75 mM Tris-HCl (pH 7.5), 6 mM MgCl2, 10% (v/v) DMSO, and UDP-MurNAc-pentapeptide obtained from Bacillus cereus DSM2302 (based on) were added. Compounds were applied at the indicated concentrations and incubated with 2 µg MraYCpn at 30 °C for 90 min. […]
# C. trachomatis D/UW-3/CX [4] = test: Effect of MRY D2 on active (mid-stage) and penicillin G-induced persistent C. trachomatis infections, inclusion counts; assay type: cell-based; settings: read at 30 hpi
# Procedure: Figure 6 Effect of MRY D2 on PEN G-induced persistent C. trachomatis infections. (a) HEp-2 cells infected with C. trachomatis D/UW-3/CX were treated with 128 µg/mL MRY D2 at 2 hpi or 12 hpi to analyze the effect on active infection. Additionally, 128 µg/mL MRY D2 and 100 U/mL PEN G were added simultaneously at 2 hpi. To assess the effect on a PEN G-induced persistent infection, 100 U/mL PEN G was added at 2 hpi, and 128 µg/mL MRY D2 was added at 12 hpi. Anti-chlamydial activity was analyzed at 30 hpi by fluorescence microscopy. (b) Eukaryotic host cell cytoplasm from representative images was labelled with Evans Blue (red), genomic DNA with DAPI (blue), and chlamydial lipopolysaccharide with fluorescein (green). Scale bar: 10 µm. (c) Mean ± SD of inclusions/field and (d) the relative number of inclusions filled with either elementary bodies (EBs)/reticulate bodies (RBs), ABs, or a mixed phenotype, analyzed from three images. An unpaired, two-tailed Student’s t-test was performed against the respective vehicle control. ns: not significant, p > 0.05; *: p = 0.05 to 0.01; **: p = 0.01 to 0.001; ****: p < 0.0001. In comparison with the DMSO vehicle control, the addition of PEN G at 2 hpi induced persistence, characterized by aberrant bodies. Early application of MRY D2 at 2 hpi (p < 0.0001) and simultaneous application with PEN G at 2 hpi induced the formation of ABs. […] This was also visible if persistence was induced by PEN G at 2 hpi followed by MRY D2 addition at 12 hpi (p = 0.0037).
# as §1
# The effect of MRY D2 on penicillin-induced persistent C. trachomatis infections was analyzed as described for the active infection, with the following modifications. After removal of the EB-containing lysate at 2 hpi and washing of the cells, 100 U/mL PEN G was added to induce a persistent infection. MRY D2 was added at 12 hpi in a concentration range of 128 µg/mL to 1 µg/mL by serial dilution. In another approach, MRY D2 was applied simultaneously with PEN G at 2 hpi to determine if early administration influences the establishment of a persistent infection.
# as §2, with “Genomic DNA was stained with 10 µg/mL DAPI (Thermo Fisher Scientific) for 1 min and then washed twice with PBS for 10 min at 4 °C.” left out
# Inclusions were quantified using CellProfiler 4.0.6. […]
# HEp-2 cells [5] = test system: HEp-2 cells
# Procedure: as §3
# [6] = 128 µg/mL MRY D2 alone added at 12 hpi
smiles,measurement,setting,value
"CC[C@H]1OC(=O)[C@H](C)[C@@H](O[C@H]2C[C@@](C)(OC)[C@@H](O)[C@H](C)O2)[C@H](C)[C@@H](O[C@@H]2O[C@H](C)C[C@H](N(C)C)[C@H]2O)[C@](C)(O)C[C@@H](C)CN(C)[C@H](C)[C@@H](O)[C@]1(C)O [AZI, azithromycin]",MIC,C. trachomatis serovar D,< 1 µg/mL
"O=C(O)c1cn(C2CC2)c2cc(N3CCNCC3)c(F)cc2c1=O [CIP, ciprofloxacin, reference compound]",Effect on C. trachomatis infection (phenotype),C. trachomatis D/UW-3/CX [1]; 0.5 µg/mL,bactericidal
"C[C@H]1c2cccc(O)c2C(=O)C2=C(O)[C@]3(O)C(=O)C(C(N)=O)=C(O)[C@@H](N(C)C)[C@@H]3[C@@H](O)[C@@H]21 [DOX, doxycycline]",Depletion of Wolbachia (16S rDNA/actin B by qPCR),[2],nearly completely depleted
same,MIC,C. trachomatis serovar D,< 1 µg/mL
"CC(C)C[C@H](NC(=O)[C@@H](NC(=O)N[C@H](C(=O)O)C(C)C)[C@@H]1CCN=C(N)N1)C(=O)NCCCN[C@H](C(=O)O)[C@H](O[C@@H]1O[C@H](CN)[C@@H](O)[C@H]1O)[C@H]1O[C@@H](n2ccc(=O)[nH]c2=O)[C@H](O)[C@@H]1O [MRY D2, Muraymycin D2]",CC50,HEp-2 cells [3],> 128 µg/mL
same,Inhibition of lipid I formation by recombinant MraYCpn,C. pneumoniae MraY,completely abolished enzymatic activity
same,MIC,C. trachomatis D/UW-3/CX [1],128 µg/mL
same,Relative number of inclusions containing EBs/RBs,C. trachomatis D/UW-3/CX [4]; [6],83%
same,Relative number of inclusions containing a mixed phenotype (EBs/RBs/ABs),C. trachomatis D/UW-3/CX [4]; [6],8%
same,Phenotype on simultaneous treatment with PEN G,C. trachomatis D/UW-3/CX [4]; 128 µg/mL MRY D2 and 100 U/mL PEN G added simultaneously at 2 hpi,inclusions filled with ABs were visible as for PEN G alone
same,Fewer inclusions (reduction in inclusion number),C. trachomatis D/UW-3/CX [4]; active infection: 128 µg/mL MRY D2 alone added at 12 hpi,75%
same,Reduction of the inclusion quantity,"C. trachomatis D/UW-3/CX [4]; established persistent infection: 100 U/mL PEN G at 2 hpi, then 128 µg/mL MRY D2 at 12 hpi, vs PEN G only",70%
"CC1(C)S[C@@H]2[C@H](NC(=O)Cc3ccccc3)C(=O)N2[C@H]1C(=O)O [PEN, penicillin, reference compound]",Effect on C. trachomatis infection (phenotype),C. trachomatis D/UW-3/CX [1]; 100 U/mL,"induced persistence visible as enlarged, aberrant bodies"
"CCCCCCCCCCCCCCCCC[C@H]1CN(C)[C@@H]([C@H](O[C@@H]2O[C@H](CN)[C@@H](O)[C@H]2O)[C@H]2O[C@@H](n3ccc(=O)[nH]c3=O)[C@H](O)[C@@H]2O)C(=O)N(C)[C@@H]1C(=O)O [cCPZ, carbacaprazamycin]",MIC,C. trachomatis D/UW-3/CX [1],16 µg/mL
same,CC50,HEp-2 cells [5],124 µg/mL
